Assay results: ChEMBL document CHEMBL1201862, “PubChem BioAssay data set” (2004)
The source made the active and inactive calls.

Assays:
[1] = target: T1, Small ubiquitin-related modifier 1 (Homo sapiens, UniProt P63165); experiment: SUMO1 protein-protein binding blockers, potency – biochemical, FRET, dose response (AID 624383); format: functional; conditions: read-out: IC50_Mean
[2] = target: Peroxisome proliferator-activated receptor gamma/Nuclear receptor corepressor 2 (Homo sapiens, UniProt P37231+Q9Y618); experiment: Counterscreen for NR2E3 inverse agonists: TR-FRET-based biochemical high throughput dose response assay to identify inverse agonists of the interaction between peroxisome proliferator-activated receptor gamma (PPARg) and nuclear receptor co-repressor 2 (NCOR2).; format: functional
Peroxisome proliferator-activated receptor gamma/Nuclear receptor corepressor 2, sequence (P37231 whole entry): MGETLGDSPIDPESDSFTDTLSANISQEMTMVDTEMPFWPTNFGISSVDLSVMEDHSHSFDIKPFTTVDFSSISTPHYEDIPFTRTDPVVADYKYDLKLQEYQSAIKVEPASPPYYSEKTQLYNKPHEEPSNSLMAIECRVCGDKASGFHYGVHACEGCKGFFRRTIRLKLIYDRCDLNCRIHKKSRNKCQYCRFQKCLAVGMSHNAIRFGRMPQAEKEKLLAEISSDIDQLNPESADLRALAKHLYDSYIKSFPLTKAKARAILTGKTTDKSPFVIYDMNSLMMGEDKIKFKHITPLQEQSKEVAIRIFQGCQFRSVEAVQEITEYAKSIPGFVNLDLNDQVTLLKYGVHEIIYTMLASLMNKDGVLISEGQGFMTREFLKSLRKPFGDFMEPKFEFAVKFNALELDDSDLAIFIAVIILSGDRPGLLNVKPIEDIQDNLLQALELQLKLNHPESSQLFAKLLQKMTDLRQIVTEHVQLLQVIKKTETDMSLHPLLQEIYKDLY
Peroxisome proliferator-activated receptor gamma/Nuclear receptor corepressor 2, sequence (Q9Y618 whole entry): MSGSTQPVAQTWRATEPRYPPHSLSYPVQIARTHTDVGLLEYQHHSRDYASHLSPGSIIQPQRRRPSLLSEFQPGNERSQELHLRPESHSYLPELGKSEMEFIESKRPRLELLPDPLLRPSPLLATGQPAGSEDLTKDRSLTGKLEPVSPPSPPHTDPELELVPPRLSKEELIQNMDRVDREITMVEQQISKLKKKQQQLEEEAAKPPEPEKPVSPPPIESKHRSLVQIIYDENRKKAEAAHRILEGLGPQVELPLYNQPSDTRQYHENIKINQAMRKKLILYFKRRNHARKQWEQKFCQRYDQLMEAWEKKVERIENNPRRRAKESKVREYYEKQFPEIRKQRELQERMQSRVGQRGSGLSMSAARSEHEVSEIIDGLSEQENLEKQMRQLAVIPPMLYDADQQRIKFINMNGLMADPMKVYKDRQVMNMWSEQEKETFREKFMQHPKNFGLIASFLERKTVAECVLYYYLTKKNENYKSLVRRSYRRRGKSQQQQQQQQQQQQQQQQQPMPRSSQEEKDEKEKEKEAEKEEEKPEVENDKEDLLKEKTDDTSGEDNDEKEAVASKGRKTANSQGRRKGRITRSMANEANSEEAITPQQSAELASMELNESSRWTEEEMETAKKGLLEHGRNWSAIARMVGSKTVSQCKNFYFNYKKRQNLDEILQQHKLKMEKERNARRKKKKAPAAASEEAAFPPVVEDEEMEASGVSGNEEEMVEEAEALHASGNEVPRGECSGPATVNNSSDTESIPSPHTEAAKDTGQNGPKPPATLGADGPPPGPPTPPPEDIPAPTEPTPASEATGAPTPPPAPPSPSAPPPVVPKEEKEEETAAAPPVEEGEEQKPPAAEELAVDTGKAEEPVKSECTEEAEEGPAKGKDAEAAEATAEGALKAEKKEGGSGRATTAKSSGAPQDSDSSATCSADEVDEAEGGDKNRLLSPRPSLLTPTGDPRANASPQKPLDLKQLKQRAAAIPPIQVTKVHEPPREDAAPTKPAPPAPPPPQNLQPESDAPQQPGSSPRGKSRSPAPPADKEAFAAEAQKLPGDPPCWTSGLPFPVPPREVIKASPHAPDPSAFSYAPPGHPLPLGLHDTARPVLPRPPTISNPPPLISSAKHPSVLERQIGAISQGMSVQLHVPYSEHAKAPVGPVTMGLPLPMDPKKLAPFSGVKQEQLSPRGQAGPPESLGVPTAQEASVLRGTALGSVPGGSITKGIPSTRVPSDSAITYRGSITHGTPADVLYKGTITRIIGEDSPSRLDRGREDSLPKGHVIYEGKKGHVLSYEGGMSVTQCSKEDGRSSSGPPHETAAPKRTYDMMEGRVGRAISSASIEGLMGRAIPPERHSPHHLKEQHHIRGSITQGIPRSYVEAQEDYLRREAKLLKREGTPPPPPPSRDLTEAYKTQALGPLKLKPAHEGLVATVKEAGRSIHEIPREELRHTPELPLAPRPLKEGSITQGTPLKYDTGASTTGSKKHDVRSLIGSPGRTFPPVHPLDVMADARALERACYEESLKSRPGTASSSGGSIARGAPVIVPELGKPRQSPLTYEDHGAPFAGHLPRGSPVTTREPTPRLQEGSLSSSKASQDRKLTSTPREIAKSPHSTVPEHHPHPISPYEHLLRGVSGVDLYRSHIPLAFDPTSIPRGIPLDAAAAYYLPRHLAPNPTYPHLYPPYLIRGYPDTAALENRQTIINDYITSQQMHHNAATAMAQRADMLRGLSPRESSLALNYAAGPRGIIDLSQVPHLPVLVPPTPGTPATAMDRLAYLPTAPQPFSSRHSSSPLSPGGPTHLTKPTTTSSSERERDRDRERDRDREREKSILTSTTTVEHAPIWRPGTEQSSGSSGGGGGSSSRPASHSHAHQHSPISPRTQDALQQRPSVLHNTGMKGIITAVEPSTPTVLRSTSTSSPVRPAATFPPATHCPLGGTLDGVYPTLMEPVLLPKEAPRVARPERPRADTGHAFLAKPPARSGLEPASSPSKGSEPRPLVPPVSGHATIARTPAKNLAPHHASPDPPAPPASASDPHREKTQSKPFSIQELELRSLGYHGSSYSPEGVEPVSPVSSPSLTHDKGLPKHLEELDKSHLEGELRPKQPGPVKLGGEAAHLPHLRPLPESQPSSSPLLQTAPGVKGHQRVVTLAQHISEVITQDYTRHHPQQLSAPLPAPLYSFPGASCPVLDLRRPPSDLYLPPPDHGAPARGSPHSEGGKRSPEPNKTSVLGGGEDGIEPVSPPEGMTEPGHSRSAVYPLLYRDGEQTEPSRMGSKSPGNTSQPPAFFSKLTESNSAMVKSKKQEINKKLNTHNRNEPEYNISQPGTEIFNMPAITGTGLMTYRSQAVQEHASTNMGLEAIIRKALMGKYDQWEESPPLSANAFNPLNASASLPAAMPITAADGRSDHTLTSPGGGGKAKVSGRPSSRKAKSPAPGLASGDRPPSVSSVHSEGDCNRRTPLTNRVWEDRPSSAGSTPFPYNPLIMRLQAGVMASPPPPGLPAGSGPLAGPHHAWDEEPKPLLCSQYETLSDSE

[3] = target: T1, Small ubiquitin-related modifier 1; experiment: SUMO1 protein interaction blockers, potency – biochemical, fluorescence polarization, uHTS hits, dose response (AID 624382); format: functional; conditions: read-out: IC50_Mean
[4] = target: Beta-adrenergic receptor kinase 1 (Homo sapiens, UniProt P25098); experiment: blockers of aptamer binding to GRK2 – biochemical, flow cytometry beads, FAM-aptamer, powder set 1, dose response (AID 588720)
Beta-adrenergic receptor kinase 1, sequence (P25098 whole entry): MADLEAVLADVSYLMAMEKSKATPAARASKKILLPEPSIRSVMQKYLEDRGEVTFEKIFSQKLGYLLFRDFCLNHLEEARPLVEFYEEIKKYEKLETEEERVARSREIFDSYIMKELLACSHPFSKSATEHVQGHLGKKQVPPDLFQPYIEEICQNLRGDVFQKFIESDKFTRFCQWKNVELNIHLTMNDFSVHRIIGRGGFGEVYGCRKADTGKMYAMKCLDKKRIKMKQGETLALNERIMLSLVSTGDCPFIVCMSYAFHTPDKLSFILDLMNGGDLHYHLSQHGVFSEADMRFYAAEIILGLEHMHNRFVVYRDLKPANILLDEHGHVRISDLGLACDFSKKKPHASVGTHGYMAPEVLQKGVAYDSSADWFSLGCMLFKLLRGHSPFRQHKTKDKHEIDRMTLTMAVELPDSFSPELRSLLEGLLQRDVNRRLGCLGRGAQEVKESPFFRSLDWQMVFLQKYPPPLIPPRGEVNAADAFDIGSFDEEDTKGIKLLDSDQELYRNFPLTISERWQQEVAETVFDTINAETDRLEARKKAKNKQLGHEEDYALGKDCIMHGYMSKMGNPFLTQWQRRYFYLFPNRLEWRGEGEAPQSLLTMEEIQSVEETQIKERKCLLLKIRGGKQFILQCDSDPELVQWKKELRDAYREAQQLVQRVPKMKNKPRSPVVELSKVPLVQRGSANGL

[5] = target: Photoreceptor-specific nuclear receptor (Homo sapiens, UniProt Q9Y5X4); experiment: ligands suppressing NR2E3 nuclear receptor activity – biochemical, TR-FRET, dose response (AID 463256); format: functional
Photoreceptor-specific nuclear receptor, sequence (Q9Y5X4 whole entry): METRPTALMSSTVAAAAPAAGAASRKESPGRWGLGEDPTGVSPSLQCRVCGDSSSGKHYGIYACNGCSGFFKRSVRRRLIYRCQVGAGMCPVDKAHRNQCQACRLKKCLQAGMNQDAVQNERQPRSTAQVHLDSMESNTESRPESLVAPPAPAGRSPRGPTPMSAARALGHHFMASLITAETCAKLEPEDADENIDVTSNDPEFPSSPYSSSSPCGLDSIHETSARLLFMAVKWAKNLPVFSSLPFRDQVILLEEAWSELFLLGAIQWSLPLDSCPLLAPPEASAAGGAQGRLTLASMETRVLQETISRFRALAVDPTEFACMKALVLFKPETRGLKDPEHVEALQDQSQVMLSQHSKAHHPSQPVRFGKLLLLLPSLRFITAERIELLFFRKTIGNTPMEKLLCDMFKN

HEK293 [6] = experiment: HEK293T cell viability loss, resazurin readout – resazurin fluorescence, cytotoxicity control for NF-kB activator project, SAR follow-up (AID 493251); format: functional, cell-based; conditions: Homo sapiens
HEK293 [7] = experiment: SAR Analysis of small molecule inhibitors of T-cell specific antigen receptor-induced NF-kB activation in a HEK-293T cell line using a luminescence assay - Set 2. [Related pubchem assays (depositor defined):AID435003, AID435012, AID489026]; format: functional, cell-based; conditions: Homo sapiens
Jurkat = experiment: SAR Analysis of small molecule inhibitors of T-cell specific antigen receptor-induced NF-kB activation in a Jurkat cell line using a luminescence assay - Set 2. [Related pubchem assays (depositor defined):AID435003, AID435012, AID465]; format: functional, cell-based; conditions: Homo sapiens
[8] = Luminescence Cell-Based Dose Retest to Confirm Inhibitors of Cancer Stem Cells. [Related pubchem assays (depositor defined):AID2717, AID2721]; format: functional; conditions: Homo sapiens
[9] = NIH3T3 cell viability loss – ATP luminescence, mouse fibroblasts, counter-screen, dose response (AID 2010); format: functional, cell-based;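 also: cells exposed to compound for about 90 hours before reading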
Streptococcus = experiment: GAS UMAA2166 growth inhibition – luminescence, BacTiterGlo, counter-screen for streptokinase expression inhibitor project, dose response (AID 1915); format: functional, organism-based;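 also: potency for reduction of bacterial viability or growth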
A-375 [10] = experiment: proliferation inhibition in MITF-low A375 cells – cell-based, cherry-pick samples, set 2, counter-screen for MITF modulator project, dose response (AID 540335); format: functional; conditions: Homo sapiens
[11] = system: Streptococcus sp. 'group A'; experiment: Streptococcus pyogenes SK(-)GAS viability under kanamycin – luminescence, BacTiterGlo, confirmation, counter-screen for streptokinase expression inhibitor project, dose response (AID 1900); format: functional, organism-based
Streptokinase A = target: T2, Streptokinase A (Streptococcus pyogenes serotype M1, UniProt P10520); experiment: viability-normalized secreted streptokinase activity reduction – plasminogen activation absorbance, OD405, dose response (AID 1914); format: functional, Streptococcus pyogenes M1 GAS;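 also: secreted streptokinase activity via plasminogen activation per viability signal from cell pellet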
T2 sequence (P10520 whole entry): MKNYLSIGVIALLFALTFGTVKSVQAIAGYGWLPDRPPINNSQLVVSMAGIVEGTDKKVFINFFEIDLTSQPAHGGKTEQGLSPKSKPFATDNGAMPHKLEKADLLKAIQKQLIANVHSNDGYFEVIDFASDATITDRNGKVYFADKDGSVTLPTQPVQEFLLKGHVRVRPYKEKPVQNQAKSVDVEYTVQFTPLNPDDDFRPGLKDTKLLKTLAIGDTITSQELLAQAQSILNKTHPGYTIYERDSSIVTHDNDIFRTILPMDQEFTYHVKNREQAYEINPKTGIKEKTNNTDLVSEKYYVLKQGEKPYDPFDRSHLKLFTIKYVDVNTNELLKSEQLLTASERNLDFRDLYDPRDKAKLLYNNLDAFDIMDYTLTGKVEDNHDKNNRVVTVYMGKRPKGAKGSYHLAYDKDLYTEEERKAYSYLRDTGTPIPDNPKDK

[12] = Trypanosoma cruzi growth suppression in host cells – NIH3T3 host cells, beta-gal luminescence, confirmation (AID 2044); format: functional, cell-based;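 also: intracellular parasites grown in NIH/3T3 mouse fibroblasts as host cells; luminescent beta-galactosidase reporter signal from transgenic T. cruzi replicating inside host cells; inhibitors lower the luminescence signal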
[13] = target: T3, Microphthalmia-associated transcription factor (Homo sapiens, UniProt O75030); experiment: reducers of TRPM1 reporter luminescence, concentration series – cell-based, SK-MEL-5, cherry-picked, set 3, MITF inhibitor project, dose response (AID 493073); format: functional;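 also: SK-MEL-5 melanoma cells with luciferase driven by the MITF target TRPM1 promoter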
T3 sequence (O75030 whole entry): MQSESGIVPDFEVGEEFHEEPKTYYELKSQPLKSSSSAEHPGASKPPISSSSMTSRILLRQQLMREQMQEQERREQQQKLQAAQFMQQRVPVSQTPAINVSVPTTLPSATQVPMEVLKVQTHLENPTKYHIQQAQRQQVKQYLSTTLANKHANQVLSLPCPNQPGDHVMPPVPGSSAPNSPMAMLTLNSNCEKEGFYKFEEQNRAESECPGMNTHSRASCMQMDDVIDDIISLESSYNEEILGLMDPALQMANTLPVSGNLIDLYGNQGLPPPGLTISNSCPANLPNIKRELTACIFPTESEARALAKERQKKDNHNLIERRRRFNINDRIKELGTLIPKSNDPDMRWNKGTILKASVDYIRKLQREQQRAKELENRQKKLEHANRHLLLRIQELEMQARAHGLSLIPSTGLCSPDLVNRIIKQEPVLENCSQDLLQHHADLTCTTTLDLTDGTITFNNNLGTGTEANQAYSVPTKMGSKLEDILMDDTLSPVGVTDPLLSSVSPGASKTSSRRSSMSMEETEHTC

A-375 [14] = experiment: MITF: Counter assay: A375 proliferation Measured in Cell-Based System Using Plate Reader - 2084-03_Inhibitor_Dose_DryPowder_Activity. [Related pubchem assays (depositor defined):AID488944]; format: functional; conditions: Homo sapiens

T1 sequence (P63165 whole entry): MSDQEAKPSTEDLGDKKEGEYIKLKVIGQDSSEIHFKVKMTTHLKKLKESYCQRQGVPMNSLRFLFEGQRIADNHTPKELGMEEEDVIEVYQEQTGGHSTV

CCOc1ccc(NC(=O)CCS(=O)(=O)c2ccc(Br)cc2)cc1
IC50 [1]: 12.8 µM (active)
IC50 [2]: 13.6 µM (not active)
IC50 [3]: > 66.6 µM (inactive)
EC50 [4]: 0.277 µM (inactive)
IC50 [5]: 8.87 µM (active)

CC(C)c1ccc(C(NC(=O)C2CCCCC2)c2cc([N+](=O)[O-])c3cccnc3c2O)cc1 (configuration not stated)
IC50 (HEK293 [6]): 3.96 µM (active)
IC50 (HEK293 [7]): 11.6 µM (active)
IC50 (Jurkat): 76.4 µM (inactive)

O=C(Nc1cccc(Cl)c1)Nc1cc(S(=O)(=O)N2CCCCC2)ccc1Cl
AC50 [8]: 2.59 µM (active)
EC50 [9]: > 60 µM (not active)
EC50 (Streptococcus): 26.6 µM (active)
AC50 (A-375 [10]): > 11 µM (active)
EC50 [11]: 11.8 µM (active)
EC50 (Streptokinase A): 4.59 µM (active)
EC50 [12]: 1.91 µM (active)
AC50 [13]: 12 µM (active)
AC50 (A-375 [14]): > 11 µM (active)
